Experiment: gradient 5% acetonitrile 3 min, to 50% in 2 min, to 85% in 15 min, held 3 min, 100 µL/min
Details: column: Zorbax Extend-C18 2.1 x 50 mm; eluents: water / acetonitrile, 0.1% formic acid
Procedure, shortened: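 Retention times come from adduct peaks that were picked computationally and then checked by hand. The standards, pure and pooled in mixtures of ~100 molecules, were run on a Zorbax Extend-C18 column (2.1 × 50 mm, 1.8 μm) at 100 μL/min with water and acetonitrile, each with 0.1% formic acid. Detection was by quadrupole time-of-flight mass spectrometry in positive and negative ionization mode, with a dead volume of 40 μL and a dwell volume of 900 μL.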

First: Cc1ccc(-c2noc(-c3nnn(Cc4nc(-c5cccc(Cl)c5)oc4C)c3C)n2)cc1
Second: CCOc1ccc(-c2nc(-c3ccc4nnn(CC)c4c3)no2)cc1
The RP-LC retention time of the first is lower: 908 s for the first, 1140 s for the second.

Compared with `O=C(Cc1nnc2cc(-c3nc(C4CC4)no3)ccn12)NCc1ccc(Cl)cc1`, `CCOc1ccc(Cl)cc1S(=O)(=O)N1CCC(C(=O)NCc2ccc3c(c2)OCO3)CC1` is higher in RP-LC retention time: 798 s for the first, 922 s for the second.

Compared with `CCOC(=O)c1c(S(=O)(=O)N2CCc3ccccc3C2)c(C)n(C)c1C`, `Cc1cn2c(=O)c(S(=O)(=O)N3CCN(c4ccccn4)CC3)c(C)nc2s1` is lower in RP-LC retention time: 989 s for the first, 601 s for the second.

Compared with `c1ccc2c(CCNc3ccc(Nc4ccncc4)cc3)c[nH]c2c1`, `Cc1nn(-c2ccc(Nc3ccc(NC(=O)c4ccccc4F)cc3)nn2)c(C)c1C` is lower in RP-LC retention time: 1110 s for the first, 802 s for the second.

Compared with `COCC(=O)NC1CCN(c2ccc(C)cc2)C1=O` (stereo not given), `CNC(=O)c1[nH]c2ccc(C)cc2c1N1CCCC1=O` is higher in RP-LC retention time: 666 s for the first, 675 s for the second.

Going from `CCCc1ccc(S(=O)(=O)N2CCc3c(c(-c4nnc(-c5ccccc5)o4)nn3C)C2)cc1` to `O=S(=O)(c1ccc(Br)cc1)N1CCc2nc(-c3ccc(F)cc3)ncc2C1`, the RP-LC retention time rises from 1090 s to 1170 s.

Going from `Cc1ccc(-c2nc3ccccn3c2Nc2ccc3c(c2)OCO3)cc1` to `Cc1ccc2nc(-c3ccccc3O)c(Nc3ccc4c(c3)OCCO4)n2c1`, the RP-LC retention time falls from 694 s to 684 s.

First: COc1ccc(-c2nc(C)cc(C)c2CNS(=O)(=O)c2ccc(OC)cc2)cc1
Second: COc1ccc(-c2nc3cc(C)ccn3c2NC(=O)c2ccc(OC)cc2OC)cc1
The RP-LC retention time of the first is lower: 643 s for the first, 706 s for the second.

Compared with `CC(C)C(=O)Nc1ccc2c(c1)nc(CN1CCN(C(=O)c3ccco3)CC1)n2C`, `CCN1CCN(C2CCN(C(=O)c3ccco3)CC2)C1=O` is higher in RP-LC retention time: 605 s for the first, 627 s for the second.

Compared with `COCc1cc(=O)n(CC(=O)Nc2ccc(C(C)C)cc2)c(N2CCOCC2)n1`, `CC(CNC(=O)CCn1c(N2CCCC2)nc2ccsc2c1=O)c1ccccc1` (stereo not given) is lower in RP-LC retention time: 960 s for the first, 819 s for the second.

First: Cc1nc(C)c(C(=O)NC2CCc3nn(CC4CC4)c(=O)n3CC2)s1 (stereo not given)
Second: COc1ccc(Cl)cc1S(=O)(=O)NC1CCc2nn(C)c(=O)n2CC1 (stereo not given)
The RP-LC retention time of the first is lower: 597 s for the first, 677 s for the second.

Going from `N#Cc1cccc(-c2nc(-c3ccc4c(c3)nnn4CCN3CCCCC3)no2)c1` to `CCCCN1CCN(S(=O)(=O)c2ccccc2-c2nc(-c3ccc(F)cc3)no2)CC1`, the RP-LC retention time rises from 678 s to 752 s.

Going from `O=C(C1CCCN(c2nn3c(=O)c4c(nc3s2)CCCC4)C1)N1CCN(c2ccccn2)CC1` (stereo not given) to `O=C(C1CCCN(c2ccc(-c3ccccc3)nn2)C1)N1CCN(c2ccccn2)CC1` (stereo not given), the RP-LC retention time falls from 588 s to 576 s.

Compared with `Cc1ccc2c(c1)N(S(C)(=O)=O)CCC(C(=O)Nc1cccc(F)c1)O2` (stereo not given), `Cc1cc2c(cc1S(=O)(=O)N1CCCC1C(=O)NCCc1ccccc1)OC(C)C(=O)N2` (stereo not given) is lower in RP-LC retention time: 973 s for the first, 792 s for the second.

Going from `O=C(c1ccccc1)N1CCN(C(=O)c2nnn3c2COC(c2ccc(Cl)cc2)C3)CC1` (stereo not given) to `O=C(C1CCCN(c2nccnc2Sc2ccccc2)C1)N1CCN(c2cccc(Cl)c2)CC1` (stereo not given), the RP-LC retention time rises from 873 s to 1260 s.

Compared with `O=C(Nc1nnc(-c2ccco2)o1)C1c2ccccc2Oc2ccccc21`, `Cc1ccc(CNC(=O)Nc2c(-c3ccccc3)nc3ccccn23)cc1` is lower in RP-LC retention time: 783 s for the first, 662 s for the second.

First: Cc1cc2c(cc1S(=O)(=O)N1CCCC1C(=O)N1CCN(c3ccccc3)CC1)OC(C)C(=O)N2 (stereo not given)
Second: CCOC(=O)C1=C(CN2CCC(Cc3ccccc3)CC2)NC(=O)NC1c1cccs1 (stereo not given)
The RP-LC retention time of the first is lower: 814 s for the first, 884 s for the second.

First: CNC(=O)c1c(NC(=O)c2ccc(Cl)cc2)sc2c1CCC2
Second: CCOc1cc(=O)n2c(c1C(=O)Nc1cc(Cl)ccc1OC)CCCC2
The RP-LC retention time of the first is higher: 1180 s for the first, 854 s for the second.

First: O=C1COc2cc(Cl)ccc2N1Cc1nc(-c2ccc(OC(F)(F)F)cc2)no1
Second: COc1cc(Cl)ccc1-c1nc(-c2ccc3c(c2)oc(=O)n3C)no1
The RP-LC retention time of the first is higher: 1220 s for the first, 1060 s for the second.

First: COCCNC(=O)C1(c2ccc(NC(=O)c3cccs3)cc2)CC1
Second: Cc1ccc(S(=O)(=O)N2C[C@@H]3C[C@H]2C[C@@H]3NC(=O)c2cccs2)cc1Cl
The RP-LC retention time of the first is lower: 730 s for the first, 992 s for the second.

Going from `O=C(c1ncccn1)N1C[C@@H](COCC2CC2)[C@H](c2ccncc2)C1` to `CCOC(=O)C1CCC(CNC(=O)N2CCC(c3nc4ccncc4n3C)C2)CC1` (stereo not given), the RP-LC retention time falls from 654 s to 548 s.

Compared with `Cc1cc(C)cc(-n2c(-c3ccc(Cl)cc3)cn3c4c(=O)n(C)c(=O)n(C)c4nc23)c1`, `Cc1csc(NC(=O)CN2CCC3(CC2)NC(=O)N(Cc2ccc(Cl)cc2)C3=O)n1` is lower in RP-LC retention time: 1130 s for the first, 949 s for the second.

First: COCCNC(=O)c1nc(-c2ccnc(N3CCCC3)c2)no1
Second: CCOCCCNC(=O)c1nnc(-c2ccc(S(=O)(=O)N3CCCC3)cc2)o1
The RP-LC retention time of the first is lower: 585 s for the first, 786 s for the second.

Going from `COc1ccc(S(=O)(=O)N2CCc3nc(-c4ccc(F)cc4)ncc3C2)cc1OC` to `COc1cc(N2CCN(S(=O)(=O)c3cccc(C(F)(F)F)c3)CC2)nc(OC)n1`, the RP-LC retention time falls from 983 s to 947 s.

Compared with `Cc1nc(Nc2ccc(F)cn2)sc1C(=O)NCc1ccc(F)cc1`, `Cn1c(CCC(=O)NCc2ccc(C(F)(F)F)cc2)nc2ccccc2c1=O` is lower in RP-LC retention time: 832 s for the first, 825 s for the second.

Compared with `O=C(c1ccc(OCC2CCCN(C(=O)c3ccc(F)c(F)c3)C2)cc1)N1CCOCC1` (stereo not given), `O=C(Cn1c(-c2ccc(F)cc2)nc2ccccc21)N1CCOCC1` is lower in RP-LC retention time: 801 s for the first, 592 s for the second.

First: CCc1cccc(NS(=O)(=O)c2ccc(-c3c(C)noc3C)cc2)c1
Second: O=C(CN1CCC2(CC1)N=C(c1ccc(Cl)cc1)C(=O)N2)Nc1ccc2c(c1)OCO2
The RP-LC retention time of the first is higher: 985 s for the first, 681 s for the second.

Going from `COc1ccc(NC(=O)C2CCCN(c3ncnc4c3nc3n4CCCCC3)C2)cc1Cl` (stereo not given) to `COc1ccc(OC)c(NC(=O)C2CC(=O)N(c3n[nH]c4cccc(F)c34)C2)c1` (stereo not given), the RP-LC retention time falls from 828 s to 732 s.

First: O=C(NC1CCCC1)N1CCC(c2nc(C3CCOCC3)no2)CC1
Second: Cn1ccnc1C(=O)N1CCC(Cc2noc(C3CC3)n2)C1 (stereo not given)
The RP-LC retention time of the first is higher: 691 s for the first, 590 s for the second.

Compared with `CC(C)CC(=O)N1CCc2c([nH]c3ccccc23)C12C(=O)N(C)c1ccccc12` (stereo not given), `COc1ccccc1CNC(=O)c1cn2ccccc2n1` is lower in RP-LC retention time: 951 s for the first, 665 s for the second.

Going from `CCOC(=O)CCNC(=O)N1[C@H]2CC[C@@H]1c1cnc(-c3ccccc3)nc1C2` to `CCOC(=O)Cn1c(=N)n(CCN2CCOCC2)c2ccccc21`, the RP-LC retention time falls from 794 s to 548 s.

First: O=C(CC1CCN(C(=O)c2cc(F)ccc2F)C1)NC1CC1 (stereo not given)
Second: CCCCNC(=O)C1c2cc(OC)c(OC)cc2C(=O)N(C)C1c1ccc(OC)cc1 (stereo not given)
The RP-LC retention time of the first is lower: 630 s for the first, 764 s for the second.

In the case of `CC(=O)Nc1ccc(SCc2ccccn2)nn1`, the RP-LC retention time was 527 s.
